Results on five compounds are retold here after ChEMBL document CHEMBL1201862, “PubChem BioAssay data set” (2004).

Experiment [1] in a line: MITF Measured in Cell-Based System Using Plate Reader - 2084-01_Inhibitor_Dose_DryPowder_Activity_Set7. The experiment is classed as functional.
The subject of another experiment is INS1. In words: INS-1E survival protection against cytokine death – cell-based, luminescence, retest, dose response (AID 449756).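 Note: cell death triggered by IL-1 beta plus TNF-alpha plus IFN-gamma mixture; protective hits raise ATP signal compared with cytokine alone wells.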 The experiment is classed as functional. To be noted: Rattus norvegicus.
Experiment [2] can be described thus: viability loss in MITF-independent A375 cells – cell-based, CellTiter-Glo luminescence, dry powder, set 2, counter-screen for MITF inhibitor project, dose response (AID 624489).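 Note: actives are compounds lowering A375 viability meaning general cytotoxicity.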 Particulars: A-375. The experiment is classed as functional.
Experiment [3] addresses T1, Rac GTPase-activating protein 1 (Homo sapiens, UniProt Q9H0H5).
T1 sequence (Q9H0H5 whole entry): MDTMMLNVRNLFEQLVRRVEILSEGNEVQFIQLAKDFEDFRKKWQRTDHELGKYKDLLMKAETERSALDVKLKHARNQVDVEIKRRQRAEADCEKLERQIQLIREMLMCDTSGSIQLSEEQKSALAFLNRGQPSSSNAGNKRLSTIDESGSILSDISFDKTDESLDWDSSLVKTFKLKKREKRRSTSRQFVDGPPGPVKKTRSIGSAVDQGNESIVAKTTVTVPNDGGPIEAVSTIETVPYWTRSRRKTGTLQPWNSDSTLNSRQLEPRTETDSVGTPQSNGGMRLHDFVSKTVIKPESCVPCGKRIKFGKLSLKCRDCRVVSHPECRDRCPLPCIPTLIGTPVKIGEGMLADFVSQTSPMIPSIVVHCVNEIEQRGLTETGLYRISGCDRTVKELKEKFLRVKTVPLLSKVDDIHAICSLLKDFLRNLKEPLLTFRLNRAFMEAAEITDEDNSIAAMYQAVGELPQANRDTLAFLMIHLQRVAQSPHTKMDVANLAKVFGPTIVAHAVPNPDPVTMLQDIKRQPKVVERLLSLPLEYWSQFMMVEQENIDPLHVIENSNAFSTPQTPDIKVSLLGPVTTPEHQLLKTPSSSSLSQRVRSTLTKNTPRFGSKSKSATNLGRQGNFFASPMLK
Description: blockers of MgcRacGAP-driven Rac1 GTP hydrolysis – biochemical, ADP Hunter fluorescence, primary and confirmatory, confirmation (AID 624330). The experiment is classed as functional.

The target of experiment [4] is Dual specificity tyrosine-phosphorylation-regulated kinase 1A (Rattus norvegicus, UniProt Q63470). The experiment is classed as biochemical, Homo sapiens.
Experiment [5] deals with Intestinal-type alkaline phosphatase (Homo sapiens, UniProt P09923). Description: activation of human intestinal alkaline phosphatase – biochemical, dose response (AID 488873). The experiment is classed as functional.
The target in experiment [6] is T2, Orexin/Hypocretin receptor type 1 (Homo sapiens, UniProt O43613).
T2 sequence (O43613 whole entry): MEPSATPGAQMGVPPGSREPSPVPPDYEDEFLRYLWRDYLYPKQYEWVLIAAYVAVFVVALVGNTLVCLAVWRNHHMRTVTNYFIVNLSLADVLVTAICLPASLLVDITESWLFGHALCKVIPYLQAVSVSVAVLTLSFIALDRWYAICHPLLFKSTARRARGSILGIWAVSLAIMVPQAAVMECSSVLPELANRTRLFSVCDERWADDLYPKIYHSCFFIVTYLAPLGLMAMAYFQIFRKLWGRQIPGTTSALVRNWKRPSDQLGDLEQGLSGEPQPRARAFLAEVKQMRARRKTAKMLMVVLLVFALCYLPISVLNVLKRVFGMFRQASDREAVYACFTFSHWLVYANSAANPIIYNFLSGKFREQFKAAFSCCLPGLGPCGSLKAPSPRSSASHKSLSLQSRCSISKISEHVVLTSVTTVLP
Description: Fluorescence-based cell-based high throughput dose response assay for antagonists of the orexin 1 receptor (OX1R; HCRTR1). [Related pubchem assays (depositor defined):AID434989, AID435008, AID463079, AID485270, AID492963, AID492964, AID492965, AID493232, AID504717, AID504718]. The experiment is classed as functional.

The target of a further experiment is Insulin receptor (Homo sapiens, UniProt P06213). The experiment is classed as functional.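 Note: insulin receptor kinase tested as one member of a kinome-wide kinase panel.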
In experiment [7] the target is Mitogen-activated protein kinase 9 (Homo sapiens, UniProt P45984). The experiment is classed as functional.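 Note: value from a kinome panel profiling assay, MAPK9 panel entry.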
For experiment [8], the target named is Casein kinase I isoform gamma-1 (Homo sapiens, UniProt Q9HCP0). The experiment is classed as functional.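 Note: measured as the CSNK1G1 member of a kinome profiling panel.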
In experiment [9] the target is Tyrosine-protein kinase receptor TYRO3 (Homo sapiens, UniProt Q06418). The experiment is classed as functional.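 Note: TYRO3 value obtained as one member of a kinome-wide profiling panel.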
The target in experiment [10] is Dual specificity tyrosine-phosphorylation-regulated kinase 1B (Homo sapiens, UniProt Q9Y463). Description: Navigating the Kinome. Panel member name: DYRK1B. The experiment is classed as functional.
Experiment [11] has as its target 3-phosphoinositide-dependent protein kinase 1 (Homo sapiens, UniProt O15530). The experiment is classed as functional.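 Note: value comes from the Navigating the Kinome panel, PDPK1 member.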
For experiment [12], the target named is Dual specificity tyrosine-phosphorylation-regulated kinase 1A (Homo sapiens, UniProt Q13627). The experiment is classed as functional.
Experiment [13] deals with Serine/threonine-protein kinase pim-2 (Homo sapiens, UniProt Q9P1W9). The experiment is classed as functional.
Experiment [14] has as its target Serine/threonine-protein kinase DCLK1 (Homo sapiens, UniProt O15075). The experiment is classed as functional.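 Note: affinity for DCLK1 (listed as DCAMKL1) measured as one member of a kinome-wide kinase profiling panel.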
Experiment [15] addresses Serine/threonine-protein kinase D2 (Homo sapiens, UniProt Q9BZL6). The experiment is classed as functional.
In experiment [16] the target is Tyrosine-protein kinase Fyn (Homo sapiens, UniProt P06241). The experiment is classed as functional.
Experiment [17] addresses Dual specificity tyrosine-phosphorylation-regulated kinase 4 (Homo sapiens, UniProt Q9NR20). The experiment is classed as functional.
Experiment [18] addresses STE20-like serine/threonine-protein kinase (Homo sapiens, UniProt Q9H2G2). The experiment is classed as functional.
Experiment [19] has as its target MAP kinase-activated protein kinase 5 (Homo sapiens, UniProt Q8IW41). The experiment is classed as functional.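 Note: measured as one member of a kinome panel.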
Experiment [20] addresses Leucine-rich repeat serine/threonine-protein kinase 2 (Homo sapiens, UniProt Q5S007). The experiment is classed as functional.
In the next experiment the target is Activin receptor type-1 (Homo sapiens, UniProt Q04771). Description: Navigating the Kinome. Panel member name: ACVR1. The experiment is classed as functional.
For experiment [21], the target named is Tyrosine-protein kinase Srms (Homo sapiens, UniProt Q9H3Y6). The experiment is classed as functional.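 Note: SRMS measured as one member of a kinome-wide kinase profiling panel.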
For experiment [22], the target named is Calcium/calmodulin-dependent protein kinase type 1 (Homo sapiens, UniProt Q14012). The experiment is classed as functional.
Experiment [23] addresses Cyclin-dependent kinase 8 (Homo sapiens, UniProt P49336). Description: Navigating the Kinome. Panel member name: CDK8. The experiment is classed as functional.
Experiment [24] concerns the target Dual specificity mitogen-activated protein kinase kinase 1 (Homo sapiens, UniProt Q02750). Description: Navigating the Kinome. Panel member name: MAP2K1. The experiment is classed as functional.
A short description of experiment [25]: viability loss of HPDE-C7K cells – cell-based, fluorescence, HTS, primary screen (AID 431). The experiment is classed as functional. To be noted: Homo sapiens.

Activity calls are given as the source filed them. Bounds are passed on as bounds.

Chain of Cyclin-dependent kinase 8 (P49336 whole entry): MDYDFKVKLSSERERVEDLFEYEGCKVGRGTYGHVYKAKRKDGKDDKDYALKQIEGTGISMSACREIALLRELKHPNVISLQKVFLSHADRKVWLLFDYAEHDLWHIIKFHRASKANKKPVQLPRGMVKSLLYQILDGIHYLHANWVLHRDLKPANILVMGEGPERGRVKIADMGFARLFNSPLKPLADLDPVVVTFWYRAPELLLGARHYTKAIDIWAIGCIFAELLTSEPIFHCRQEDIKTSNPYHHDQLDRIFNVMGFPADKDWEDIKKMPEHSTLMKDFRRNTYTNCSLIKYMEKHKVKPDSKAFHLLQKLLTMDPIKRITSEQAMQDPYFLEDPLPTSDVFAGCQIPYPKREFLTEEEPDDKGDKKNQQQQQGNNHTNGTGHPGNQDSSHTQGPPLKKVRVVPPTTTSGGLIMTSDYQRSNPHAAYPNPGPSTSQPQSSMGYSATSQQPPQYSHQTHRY
Chain of Tyrosine-protein kinase Srms (Q9H3Y6 whole entry): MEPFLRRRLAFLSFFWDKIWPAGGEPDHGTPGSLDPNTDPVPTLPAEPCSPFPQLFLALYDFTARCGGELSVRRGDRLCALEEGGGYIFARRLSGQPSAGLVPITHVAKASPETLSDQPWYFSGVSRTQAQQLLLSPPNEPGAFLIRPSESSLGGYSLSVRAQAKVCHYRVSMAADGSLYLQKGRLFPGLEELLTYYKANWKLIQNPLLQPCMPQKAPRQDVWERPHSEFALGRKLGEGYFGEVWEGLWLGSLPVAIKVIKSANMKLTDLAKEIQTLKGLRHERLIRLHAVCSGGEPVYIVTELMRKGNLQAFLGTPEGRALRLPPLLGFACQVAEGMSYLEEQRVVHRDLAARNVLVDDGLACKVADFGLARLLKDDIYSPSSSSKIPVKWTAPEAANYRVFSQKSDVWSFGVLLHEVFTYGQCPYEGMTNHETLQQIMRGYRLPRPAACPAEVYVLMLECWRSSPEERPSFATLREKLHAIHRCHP
Chain of Intestinal-type alkaline phosphatase (P09923 whole entry): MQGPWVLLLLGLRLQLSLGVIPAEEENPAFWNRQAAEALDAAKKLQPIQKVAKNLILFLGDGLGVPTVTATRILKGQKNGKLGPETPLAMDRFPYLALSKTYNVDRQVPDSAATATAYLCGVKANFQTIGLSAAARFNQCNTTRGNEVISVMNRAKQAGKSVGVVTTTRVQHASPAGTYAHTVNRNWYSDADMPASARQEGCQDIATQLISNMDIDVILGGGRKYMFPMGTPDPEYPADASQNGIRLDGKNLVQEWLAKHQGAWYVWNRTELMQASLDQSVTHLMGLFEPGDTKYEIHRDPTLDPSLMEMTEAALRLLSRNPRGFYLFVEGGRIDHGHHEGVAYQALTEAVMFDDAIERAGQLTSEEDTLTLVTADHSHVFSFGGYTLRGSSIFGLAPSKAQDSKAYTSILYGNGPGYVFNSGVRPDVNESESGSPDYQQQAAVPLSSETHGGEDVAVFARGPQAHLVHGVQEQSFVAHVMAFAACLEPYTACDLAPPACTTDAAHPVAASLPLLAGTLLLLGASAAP
Chain of Mitogen-activated protein kinase 9 (P45984 whole entry, canonical isoform): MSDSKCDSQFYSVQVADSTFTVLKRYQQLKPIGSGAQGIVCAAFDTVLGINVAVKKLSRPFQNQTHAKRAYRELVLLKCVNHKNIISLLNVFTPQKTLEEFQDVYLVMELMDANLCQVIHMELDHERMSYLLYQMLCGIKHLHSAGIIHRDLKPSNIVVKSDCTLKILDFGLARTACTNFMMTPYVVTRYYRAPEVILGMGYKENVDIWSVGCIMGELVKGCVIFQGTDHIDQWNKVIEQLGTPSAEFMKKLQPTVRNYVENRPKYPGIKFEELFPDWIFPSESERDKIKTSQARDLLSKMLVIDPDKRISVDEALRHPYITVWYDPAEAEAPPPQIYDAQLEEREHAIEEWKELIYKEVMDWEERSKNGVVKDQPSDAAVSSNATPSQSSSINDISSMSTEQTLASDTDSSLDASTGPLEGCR
Chain of Leucine-rich repeat serine/threonine-protein kinase 2 (Q5S007 whole entry): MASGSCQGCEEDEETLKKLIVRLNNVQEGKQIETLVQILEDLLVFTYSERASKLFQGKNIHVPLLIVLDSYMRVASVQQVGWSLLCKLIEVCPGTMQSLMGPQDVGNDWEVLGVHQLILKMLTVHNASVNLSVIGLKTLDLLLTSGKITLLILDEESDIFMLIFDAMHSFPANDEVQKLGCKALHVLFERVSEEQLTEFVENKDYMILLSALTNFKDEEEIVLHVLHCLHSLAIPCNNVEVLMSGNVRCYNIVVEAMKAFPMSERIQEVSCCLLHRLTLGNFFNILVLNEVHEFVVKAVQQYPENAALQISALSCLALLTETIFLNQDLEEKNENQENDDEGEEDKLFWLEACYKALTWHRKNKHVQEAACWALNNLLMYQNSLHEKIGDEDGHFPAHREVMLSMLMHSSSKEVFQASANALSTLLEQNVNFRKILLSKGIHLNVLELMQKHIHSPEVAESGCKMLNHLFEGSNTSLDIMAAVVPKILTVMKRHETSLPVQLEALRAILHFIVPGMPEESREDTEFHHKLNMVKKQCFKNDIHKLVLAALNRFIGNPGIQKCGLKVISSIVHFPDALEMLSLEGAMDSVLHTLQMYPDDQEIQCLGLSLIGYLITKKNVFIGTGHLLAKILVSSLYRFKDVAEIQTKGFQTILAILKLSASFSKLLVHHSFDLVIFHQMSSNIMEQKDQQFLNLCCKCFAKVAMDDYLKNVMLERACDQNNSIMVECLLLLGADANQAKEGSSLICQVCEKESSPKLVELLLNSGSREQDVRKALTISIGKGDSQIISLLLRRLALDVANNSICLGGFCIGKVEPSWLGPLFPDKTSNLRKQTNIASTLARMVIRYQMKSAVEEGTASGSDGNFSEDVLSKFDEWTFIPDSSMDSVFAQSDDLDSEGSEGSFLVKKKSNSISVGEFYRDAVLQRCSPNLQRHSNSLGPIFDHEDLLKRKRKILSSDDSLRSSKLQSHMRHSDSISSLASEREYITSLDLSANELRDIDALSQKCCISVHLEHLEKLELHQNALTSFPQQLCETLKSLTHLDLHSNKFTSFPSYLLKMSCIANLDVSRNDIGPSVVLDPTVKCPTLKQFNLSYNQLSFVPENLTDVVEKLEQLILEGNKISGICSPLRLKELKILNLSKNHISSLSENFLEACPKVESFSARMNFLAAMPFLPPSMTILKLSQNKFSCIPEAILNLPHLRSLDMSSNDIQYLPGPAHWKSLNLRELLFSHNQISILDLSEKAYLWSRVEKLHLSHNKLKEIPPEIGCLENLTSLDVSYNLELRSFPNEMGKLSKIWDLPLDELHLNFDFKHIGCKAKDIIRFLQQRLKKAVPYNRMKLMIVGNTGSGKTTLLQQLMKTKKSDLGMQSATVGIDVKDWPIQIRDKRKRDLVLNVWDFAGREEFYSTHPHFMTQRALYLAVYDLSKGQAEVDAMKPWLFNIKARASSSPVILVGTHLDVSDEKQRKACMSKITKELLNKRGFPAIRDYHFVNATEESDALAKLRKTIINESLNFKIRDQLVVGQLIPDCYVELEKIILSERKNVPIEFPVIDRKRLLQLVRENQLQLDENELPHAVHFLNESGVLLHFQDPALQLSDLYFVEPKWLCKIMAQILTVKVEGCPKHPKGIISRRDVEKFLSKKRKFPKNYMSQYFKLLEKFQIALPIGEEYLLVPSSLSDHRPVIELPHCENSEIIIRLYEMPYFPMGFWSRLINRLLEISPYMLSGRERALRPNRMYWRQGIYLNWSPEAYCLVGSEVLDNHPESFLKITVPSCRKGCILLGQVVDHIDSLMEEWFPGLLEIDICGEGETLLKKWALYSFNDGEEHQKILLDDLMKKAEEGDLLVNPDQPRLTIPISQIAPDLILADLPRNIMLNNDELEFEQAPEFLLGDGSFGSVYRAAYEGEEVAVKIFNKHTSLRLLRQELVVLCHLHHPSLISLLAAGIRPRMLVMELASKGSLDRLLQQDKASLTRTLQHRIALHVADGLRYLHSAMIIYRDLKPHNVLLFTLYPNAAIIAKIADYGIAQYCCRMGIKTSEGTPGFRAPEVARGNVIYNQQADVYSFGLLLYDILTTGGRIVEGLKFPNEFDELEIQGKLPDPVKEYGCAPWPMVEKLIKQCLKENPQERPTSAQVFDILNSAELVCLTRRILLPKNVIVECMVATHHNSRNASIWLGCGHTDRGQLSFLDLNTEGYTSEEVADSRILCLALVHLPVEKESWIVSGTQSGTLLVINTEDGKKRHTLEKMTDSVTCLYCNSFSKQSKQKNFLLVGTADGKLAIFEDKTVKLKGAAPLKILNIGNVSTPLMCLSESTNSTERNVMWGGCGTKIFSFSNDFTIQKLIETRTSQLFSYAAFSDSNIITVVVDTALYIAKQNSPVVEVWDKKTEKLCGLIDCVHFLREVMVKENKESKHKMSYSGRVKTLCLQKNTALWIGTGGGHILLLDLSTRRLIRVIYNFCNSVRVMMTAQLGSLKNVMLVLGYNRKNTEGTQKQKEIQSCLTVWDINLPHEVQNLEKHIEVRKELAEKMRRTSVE
Chain of Dual specificity tyrosine-phosphorylation-regulated kinase 4 (Q9NR20 whole entry): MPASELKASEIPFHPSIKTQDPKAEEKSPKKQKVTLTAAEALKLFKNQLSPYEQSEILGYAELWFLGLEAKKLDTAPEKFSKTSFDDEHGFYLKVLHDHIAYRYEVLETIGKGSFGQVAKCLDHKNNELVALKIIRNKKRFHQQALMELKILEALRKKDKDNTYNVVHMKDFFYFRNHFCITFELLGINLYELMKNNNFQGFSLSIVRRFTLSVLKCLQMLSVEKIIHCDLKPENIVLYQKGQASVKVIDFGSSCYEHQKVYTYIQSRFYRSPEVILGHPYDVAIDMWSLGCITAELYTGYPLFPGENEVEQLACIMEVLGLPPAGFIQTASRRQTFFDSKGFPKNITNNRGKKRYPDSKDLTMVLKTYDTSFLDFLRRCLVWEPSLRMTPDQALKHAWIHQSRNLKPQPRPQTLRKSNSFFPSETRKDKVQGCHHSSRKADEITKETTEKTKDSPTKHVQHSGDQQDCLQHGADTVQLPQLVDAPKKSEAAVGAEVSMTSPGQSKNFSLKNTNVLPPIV

Take `C=CCNC1=C(Cl)C(=O)c2ccccc2C1=O`: the half-maximal activity concentration (AC50) is 0.735 µM (active) in experiment [1], 7.64 µM (active) in the experiment on INS1 and > 70 µM (inactive) in experiment [2].
For `CS(=O)(=O)c1ccc2c(c1)SC1=NC(=O)/C(=C/c3ccc(O)c(O)c3)C(=N)N12`, the concentration for half-maximal inhibition (IC50) in experiment [3] is 38.1 µM (active). Further, the concentration at half-maximal activity (AC50) in [4] is 2.71 µM (active). Besides, the concentration giving a half-maximal response (EC50) in experiment [5] is 61 µM (active).
In the case of `CN(C)c1ccc(-c2nnc(-c3cccs3)o2)cc1`, the IC50 in experiment [6] is > 49.7 µM (inactive).
As for `COc1ccc(C(=O)Nc2n[nH]c3ccc(-c4cn(Cc5ccccc5)nn4)cc23)cc1OC`, the Ki on Insulin receptor was 1.26 µM (active); in experiment [7] it was 0.251 µM (active); in [8] it was 0.0251 µM (active); in experiment [9] it was > 2 µM (inactive); in experiment [10] it was 0.0158 µM (active); in experiment [11], 1 µM (active). Further, the inhibitory constant (Ki) was 0.1 µM (active) in experiment [12]; > 2.51 µM (inactive) in [13]; 5.01 µM (active) in experiment [14]; 2 µM (active) in [15]; 0.251 µM (active) in experiment [16]; 6.31 µM (active) in experiment [17]. Besides, the inhibition constant Ki in [18] is 2 µM (active); in experiment [19], 1.26 µM (active); in experiment [20], 0.501 µM (active); on Activin receptor type-1, 1 µM (active); in experiment [21], > 1.58 µM (inactive); in [22], > 1.58 µM (inactive). Also, the results for the Ki in experiment [23] and in experiment [24] were > 3.98 µM (inactive) and 1.26 µM (active), respectively.
As to `CCOC(=O)C(C(=O)OCC)c1cc(Br)c2noc3c2c1C(=O)c1ccccc1-3`, the EC50 in experiment [25] is 3.06 µM (active).
